Converted amounts (≈) assume the structure as drawn. Positions of bridges follow the written chain, without caps; N, C: chain ends. Non-standard residues stand in square brackets, D forms with d. Residues, ends and D or L forms follow the SMILES beside them. ξ: configuration not given here. *: point of attachment. Hexanoyl(4ξ-Me) = CCC(C)CCC(=O)*; dOrn = NCCC[C@@H](N)C(=O)O; Orn = NCCC[C@H](N)C(=O)O
Tests used:
[1] = tested on: Acinetobacter baumannii; experiment: Antibacterial activity against multidrug resistant Acinetobacter baumannii AB5075 assessed as reduction in bacterial growth by microbroth dilution assay; type: functional
[2] = tested on: Staphylococcus aureus; experiment: Antibacterial activity against methicillin-resistant Staphylococcus aureus […] assessed as reduction in bacterial growth by microbroth dilution assay; type: functional
[3] = tested on: Staphylococcus aureus; experiment: Antibacterial activity against Staphylococcus aureus ATCC 25923 assessed as reduction in bacterial growth by microbroth dilution assay; type: functional
[4] = tested on: Pseudomonas aeruginosa; experiment: Antibacterial activity against Pseudomonas aeruginosa ATCC 27853 assessed as reduction in bacterial growth by microbroth dilution assay; type: functional
[5] = tested on: Klebsiella pneumoniae; experiment: Antibacterial activity against Klebsiella pneumoniae ATCC 33495 assessed as reduction in bacterial growth by microbroth dilution assay; type: functional
[6] = tested on: Escherichia coli; experiment: Antibacterial activity against multidrug resistant Escherichia coli MS834 harbouring mcr-1 assessed as reduction in bacterial growth by microbroth dilution assay; type: functional
[7] = tested on: Klebsiella pneumoniae; experiment: Antibacterial activity against pandrug-resistant Klebsiella pneumoniae MS6671 assessed as reduction in bacterial growth by microbroth dilution assay; type: functional
[8] = tested on: Escherichia coli; experiment: Antibacterial activity against Escherichia coli ATCC 25922 assessed as reduction in bacterial growth by microbroth dilution assay; type: functional
[9] = tested on: Klebsiella pneumoniae; experiment: Antibacterial activity against Klebsiella pneumoniae ATCC 700603 assessed as reduction in bacterial growth by microbroth dilution assay; type: functional
[10] = tested on: Acinetobacter baumannii; experiment: Antibacterial activity against Acinetobacter baumannii ATCC 19606 assessed as reduction in bacterial growth by microbroth dilution assay; type: functional
[11] = tested on: Enterococcus faecalis; experiment: Antibacterial activity against vancomycin resistant Enterococcus faecalis V583 assessed as reduction in bacterial growth by microbroth dilution assay; type: functional
[12] = tested on: Staphylococcus aureus; experiment: Antibacterial activity against methicillin-resistant Staphylococcus aureus NCTC1044 assessed as reduction in bacterial growth by microbroth dilution assay; type: functional
[13] = tested on: Staphylococcus aureus; experiment: Antibacterial activity against methicillin-resistant Staphylococcus aureus RA120 assessed as reduction in bacterial growth by microbroth dilution assay; type: functional
[14] = tested on: Staphylococcus aureus; experiment: Antibacterial activity against methicillin-resistant Staphylococcus aureus EMRSA-15 assessed as reduction in bacterial growth by microbroth dilution assay; type: functional
[15] = Nephrotoxicity in human Kidney organoid assessed as at 100 uM measured after 48 hrs by bright field imaging analysis; type: toxicity, tissue-based
[16] = Nephrotoxicity in human Kidney organoid assessed as deterioration of renal tubule measured after 48 hrs by bright field imaging analysis; type: toxicity, tissue-based; details: dose 100-1000 µM
[17] = Nephrotoxicity in human Kidney organoid assessed as at 300 uM measured after 48 hrs by bright field imaging analysis; type: toxicity, tissue-based

Compound | MIC [1] [µg/mL] | MIC [2] [µg/mL] | MIC [3] [µg/mL] | MIC [4] [µg/mL] | MIC [5] [µg/mL] | MIC [6] [µg/mL] | MIC [7] [µg/mL] | MIC [8] [µg/mL] | MIC [9] [µg/mL] | MIC [10] [µg/mL] | MIC [11] [µg/mL] | MIC [12] [µg/mL] | MIC [13] [µg/mL] | MIC [14] [µg/mL] | Activity [15] | Activity [16] | Activity [17]
CCC(C)CCC(=O)N[C@H](CC(N)=O)C(=O)N[C@H](CCCCN)C(=O)N[C@H](Cc1c[nH]c2ccccc12)C(=O)N[C@H](CCCN)C(=O)N[C@@H](CCCN)C(=O)NCC(=O)N[C@H](CCCN)C(=O)N[C@@H](Cc1c[nH]c2ccccc12)C(=O)N[C@@H]1C(=O)N[C@@H]([C@@H](C)CC)C(=O)NCC(=O)N[C@@H](CO)C(=O)O[C@@H]1C (some centres undefined) | > 32 | > 32 | > 32 | 16 (≈ 10.8 µM) | > 32 | > 32 | > 32 | > 32 | > 32 | > 32 | > 32 | – | – | – | – | – | –
Cc1onc(-c2ccccc2)c1C(=O)N[C@@H]1C(=O)N2[C@@H]1SC(C)(C)[C@@H]2C(=O)O [OXACILLIN] | – | 128 (≈ 319 µM) | – | – | – | – | – | – | – | – | – | 64 (≈ 159 µM) | 64 (≈ 159 µM) | 64 (≈ 159 µM) | – | – | –
CCC(C)CCC(=O)N[C@H](CC(N)=O)C(=O)N[C@H](Cc1c[nH]c2ccccc12)C(=O)N[C@H](Cc1c[nH]c2ccccc12)C(=O)N[C@H](CCCN)C(=O)N[C@@H](CCCN)C(=O)NCC(=O)N[C@H](CCCN)C(=O)N[C@@H](Cc1c[nH]c2ccccc12)C(=O)N[C@@H]1C(=O)N[C@@H]([C@@H](C)CC)C(=O)NCC(=O)N[C@@H](CO)C(=O)O[C@@H]1C (some centres undefined) ({Hexanoyl(4ξ-Me)}-[dN][dW][dW][dOrn][Orn]G[dOrn]WTIGS; ester 9-C) | 32 (≈ 20.7 µM) | > 32 | > 32 | 32 (≈ 20.7 µM) | 16 (≈ 10.4 µM) | 32 (≈ 20.7 µM) | > 32 | 32 (≈ 20.7 µM) | 32 (≈ 20.7 µM) | > 32 | > 32 | – | – | – | – | – | –
CCC(C)CCC(=O)N[C@H](CC(N)=O)C(=O)N[C@H](Cc1c[nH]cn1)C(=O)N[C@H](Cc1c[nH]c2ccccc12)C(=O)N[C@H](CCCN)C(=O)N[C@@H](CCCN)C(=O)NCC(=O)N[C@H](CCCN)C(=O)N[C@@H](Cc1c[nH]c2ccccc12)C(=O)N[C@@H]1C(=O)N[C@@H]([C@@H](C)CC)C(=O)NCC(=O)N[C@@H](CO)C(=O)O[C@@H]1C (some centres undefined) | > 32 | > 32 | > 32 | > 32 | > 32 | > 32 | > 32 | > 32 | > 32 | > 32 | > 32 | – | – | – | – | – | –
CCC(C)CCC(=O)N[C@H](CC(N)=O)C(=O)N[C@@H](Cc1ccc(Br)cc1)C(=O)N[C@H](Cc1c[nH]c2ccccc12)C(=O)N[C@H](CCCN)C(=O)N[C@@H](CCCN)C(=O)NCC(=O)N[C@H](CCCN)C(=O)N[C@@H](Cc1c[nH]c2ccccc12)C(=O)N[C@@H]1C(=O)N[C@@H]([C@@H](C)CC)C(=O)NCC(=O)N[C@@H](CO)C(=O)O[C@@H]1C (some centres undefined) | > 32 | > 32 | > 32 | > 32 | > 32 | > 32 | > 32 | 32 (≈ 20.2 µM) | > 32 | > 32 | > 32 | – | – | – | – | – | –
CCC(C)CCC(=O)N[C@H](CC(N)=O)C(=O)N[C@@H](Cc1ccccc1)C(=O)N[C@H](Cc1c[nH]c2ccccc12)C(=O)N[C@H](CCCN)C(=O)N[C@@H](CCCN)C(=O)NCC(=O)N[C@H](CCCN)C(=O)N[C@@H](Cc1c[nH]c2ccccc12)C(=O)N[C@@H]1C(=O)N[C@@H]([C@@H](C)CC)C(=O)NCC(=O)N[C@@H](CO)C(=O)O[C@@H]1C (some centres undefined) | > 32 | > 32 | > 32 | > 32 | > 32 | > 32 | > 32 | > 32 | > 32 | > 32 | > 32 | – | – | – | – | – | –
CCC(C)CCC(=O)N[C@H](CC(N)=O)C(=O)N[C@H](Cc1ccc(O)cc1)C(=O)N[C@H](Cc1c[nH]c2ccccc12)C(=O)N[C@H](CCCN)C(=O)N[C@@H](CCCN)C(=O)NCC(=O)N[C@H](CCCN)C(=O)N[C@@H](Cc1c[nH]c2ccccc12)C(=O)N[C@@H]1C(=O)N[C@@H]([C@@H](C)CC)C(=O)NCC(=O)N[C@@H](CO)C(=O)O[C@@H]1C (some centres undefined) ({Hexanoyl(4ξ-Me)}-[dN][dY][dW][dOrn][Orn]G[dOrn]WTIGS; ester 9-C) | 16 (≈ 10.5 µM) | > 32 | > 32 | 4 (≈ 2.63 µM) | 2 (≈ 1.32 µM) | 4 (≈ 2.63 µM) | 16 (≈ 10.5 µM) | 4 (≈ 2.63 µM) | 8 (≈ 5.26 µM) | 16 (≈ 10.5 µM) | > 32 | – | – | – | Non-Toxic | Dose-Dependent Effect | Toxic
CC1(C)S[C@@H]2[C@H](NC(=O)[C@H](N)c3ccc(O)cc3)C(=O)N2[C@H]1C(=O)O [AMOXICILLIN] | – | > 32 | 0.25 (≈ 0.684 µM) | – | – | – | – | – | – | – | 0.5 (≈ 1.37 µM) | 32 (≈ 87.6 µM) | > 32 | > 32 | – | – | –
POLYMYXIN B [listing 1 of 2 here] | 0.5 | – | – | 1 | 0.5 | 4 | 32 | 0.125 | 0.25 | 0.5 | – | – | – | – | – | – | –
POLYMYXIN B [listing 2 of 2 here] | – | – | – | – | – | – | – | – | – | – | – | – | – | – | – | Dose-Dependent Effect | Toxic
CCC(C)CCC(=O)N[C@H](CC(N)=O)C(=O)N[C@H](C(=O)N[C@H](Cc1c[nH]c2ccccc12)C(=O)N[C@H](CCCN)C(=O)N[C@@H](CCCN)C(=O)NCC(=O)N[C@H](CCCN)C(=O)N[C@@H](Cc1c[nH]c2ccccc12)C(=O)N[C@@H]1C(=O)N[C@@H]([C@@H](C)CC)C(=O)NCC(=O)N[C@@H](CO)C(=O)O[C@@H]1C)C(c1ccccc1)c1ccccc1 (some centres undefined) | 32 (≈ 20.3 µM) | > 32 | > 32 | > 32 | 32 (≈ 20.3 µM) | 16 (≈ 10.1 µM) | > 32 | 32 (≈ 20.3 µM) | > 32 | 32 (≈ 20.3 µM) | > 32 | – | – | – | – | – | –
C[C@@H](O)[C@H]1C(=O)N2C(C(=O)O)=C(S[C@@H]3CN[C@H](C(=O)N(C)C)C3)[C@H](C)[C@H]12 [MEROPENEM] | 32 (≈ 83.4 µM) | – | – | 0.25 (≈ 0.652 µM) | 0.062 (≈ 0.162 µM) | 0.062 (≈ 0.162 µM) | 32 (≈ 83.4 µM) | 0.031 (≈ 0.0808 µM) | 0.062 (≈ 0.162 µM) | 0.5 (≈ 1.3 µM) | – | – | – | – | – | – | –
COLISTIN | 1 | – | – | 1 | 0.25 | 4 | 32 | 0.125 | 0.25 | 0.5 | – | – | – | – | – | – | –
CCC(C)CCC(=O)N[C@H](CC(N)=O)C(=O)N[C@H](Cc1ccccc1)C(=O)N[C@H](Cc1c[nH]c2ccccc12)C(=O)N[C@H](CCCN)C(=O)N[C@@H](CCCN)C(=O)NCC(=O)N[C@H](CCCN)C(=O)N[C@@H](Cc1c[nH]c2ccccc12)C(=O)N[C@@H]1C(=O)N[C@@H]([C@@H](C)CC)C(=O)NCC(=O)N[C@@H](CO)C(=O)O[C@@H]1C (some centres undefined) | 16 (≈ 10.6 µM) | > 32 | > 32 | 8 (≈ 5.32 µM) | 4 (≈ 2.66 µM) | 8 (≈ 5.32 µM) | 32 (≈ 21.3 µM) | 4 (≈ 2.66 µM) | 16 (≈ 10.6 µM) | 16 (≈ 10.6 µM) | > 32 | > 32 | > 32 | > 32 | Non-Toxic | Dose-Dependent Effect | Toxic
CN[C@H](CC(C)C)C(=O)N[C@H]1C(=O)N[C@@H](CC(N)=O)C(=O)N[C@H]2C(=O)N[C@H]3C(=O)N[C@H](C(=O)N[C@H](C(=O)O)c4cc(O)cc(O)c4-c4cc3ccc4O)[C@H](O)c3ccc(c(Cl)c3)Oc3cc2cc(c3O[C@@H]2O[C@H](CO)[C@@H](O)[C@H](O)[C@H]2O[C@H]2C[C@](C)(N)[C@H](O)[C@H](C)O2)Oc2ccc(cc2Cl)[C@H]1O [VANCOMYCIN] | – | – | – | – | – | – | – | – | – | – | 32 (≈ 22.1 µM) | – | – | – | – | – | –

From ChEMBL document CHEMBL5385930, “Synthesis, Structure-Activity Relationship Study, Bioactivity, and Nephrotoxicity Evaluation of the Proposed Structure of the Cyclic Lipodepsipeptide Brevicidine B” (J Nat Prod, 2024)
